In patent publication US8242101B2, “Leukemia treatment method and composition” (University of South Florida, priority 2003, dated 2012):
Entries after “also recorded” stand apart in the source; their conditions may differ.

What was measured:
[1] = tested on: FLT-3 and p-FLT-3 on MV cells; test: Flow cytometry (FCM) assay of surface FLT-3 and p-FLT-3 on MV cells; type: cell-based, human; settings: for surface expression of p-FLT-3: FCM
Protocol: (§1) Simultaneous measurement of surface FLT-3 kinase and Phospho (P Y591) FLT-3 kinase in Acute Leukemic cells using a flow cytometric assay.
(§2) Leukemic cells are harvested by spinning at 1000 rpm at 4 deg for 5 minutes. The cells are washed twice with cold PBS (1×). Equal numbers of cells are utilized for FLT-3 and p-FLT-3 analyses.
(§3) In the assay to detect surface FLT-3 expression, shown in FIG. 8, the cells 10 are incubated on ice for thirty minutes 20 in PBS (1×) 30 containing 3% FBS (blocking buffer) 40. Subsequently, the cells are washed twice with cold PBS (1×). Cells are then incubated with either 0.2 Tg of anti-FLT-3 antibody 50 (sc-19635, Santa Cruz Biotechnology, Calif.) or concentration-matched isotype, control antibody (IgG1, Caltag, Burlingame, Calif.) 60 diluted in the blocking buffer and kept on ice for one hour 70. Cells are then washed twice in PBS (1×) and incubated in FITC-conjugated secondary antibody (Molecular Probes, Eugene, Oreg.) 80 for additional thirty minutes on ice 90. The cells are then rinsed twice with PBS (1×) and resuspended in 400 TL PBS (1×) 100. The fluorescence is measured by FACScan Cytometer (San Jose, Calif.).
To determine the p-FLT-3 expression, leukemia cells are fixed and permeabilized. Referring now to the flowchart in FIG. 9, cells 10 are fixed in 1% formaldehyde 20 at 37 degrees for ten minutes 30, followed by incubation on ice for ten minutes. Cells are then spun down and permeabilized by resuspending them in ice cold 90% methanol 40 for thirty minutes. Following this, cells are washed twice in the blocking buffer (PBS (1×) containing 0.5% BSA) 50 and then incubated in the blocking buffer for an additional ten minutes at room temperature (RT) 60. Next, to the cells, either 0.4 Tg of monoclonal antibody to p-FLT-3 (Cell Signaling, Beverley, Mass.) 70 or isotype control antibody (IgG2b, Caltag, Burlingame, Calif.) 80 is added and cells are then incubated at RT for thirty minutes 90. […] After thirty minutes of incubation 110, cells are washed twice with PBS (1×) and resuspended in 400 TI of PBS (1×) 120 and analyzed by FACScan 130.

MV4-11 (MV) cells = test: Cell cycle status and apoptosis of MV4-11 cells; type: cell-based, human
[2] = tested on: p-FLT-3, p-AKT and p-ERK1/2; test: Western analyses of FLT-3, AKT, ERK1/2 and their phospho forms in MV cells; type: cell-based, human
[3] = tested on: FLT-3 and p-FLT-3 in RS cells; test: FLT-3 and p-FLT-3 levels in RS cells by Western and FCM analyses; type: cell-based, human
Protocol: as §1, §2, §3
To determine the p-FLT-3 expression, leukemia cells are fixed and permeabilized. […] After thirty minutes of incubation 110, cells are washed twice with PBS (1×) and resuspended in 400 TI of PBS (1×) 120 and analyzed by FACScan 130.

Hsp-90 = Hsp-90 acetylation, ATP binding and chaperone activities; type: cell-based; settings: earlier work of the inventors
histone H3 and H4, p21 = test: Histone acetylation and p21 levels in AML cells; type: cell-based, human; settings: LAQ824 10 to 100 nM

Compound | surface expression of p-FLT-3 [1] | apoptosis, MV compared with RS cells (MV4-11 (MV) cells; 20 to 200 nM PKC412, dose-dependent) | cell cycle G1 phase accumulation (MV4-11 (MV) cells; exposure to 20 to 200 nM PKC412) | p-FLT-3, p-AKT and p-ERK1/2 levels ([2]; Western analyses, 20 to 200 nM PKC412) | FLT-3 and p-FLT-3 levels [3] | FLT-3 and p-FLT-3 levels ([1]; Western and FCM analyses) | apoptosis (MV4-11 (MV) cells; MV4-11 cells, single agent, FIG. 2 and FIG. 3) | levels of p-FLT-3, p-AKT and p-ERK1/2 ([2]; LAQ824 20 to 100 nM) | FLT-3, P-AKT and P-ERK levels ([2]; MV4-11 cells, immunoblots, FIG. 3) | acetylation of Hsp-90, its ATP binding and chaperone activities (Hsp-90) | acetylation of histone H3 and H4 (histone H3 and H4, p21) | p21 levels (histone H3 and H4, p21)
CO[C@@H]1[C@H](N(C)C(=O)c2ccccc2)C[C@H]2O[C@]1(C)n1c3ccccc3c3c4c(c5c6ccccc6n2c5c31)C(=O)NC4 [PKC412] | inhibited the surface expression of p-FLT-3 | significantly more apoptosis of MV than RS cells | induced cell cycle G1 phase accumulation | marked attenuation of p-FLT-3, p-AKT and p-ERK1/2 | – | – | – | – | – | – | – | –
O=C(/C=C/c1ccc(CN(CCO)CCc2c[nH]c3ccccc23)cc1)NO [LAQ824] | attenuates cell surface p-FLY-3 expression | – | – | – | attenuated both FLT-3 and p-FLT-3 levels in a dose-dependent manner | attenuated both FLT-3 and p-FLT-3 levels in a dose-dependent manner | induces apoptosis of MV4-11 cells; also recorded: inducing apoptosis of MV4-11 cells | down regulated the levels of p-FLT-3, p-AKT and p-ERK1/2 | attenuates FLT-3, P-AKT, and P-ERK | induces acetylation of Hsp-90 and inhibition of its ATP binding and chaperone activities | induced the acetylation of histone H3 and H4 | increases p21; also recorded: increased p21 levels
